Results reported in patent publication US20260184663A1, “INDENE COMPOUNDS, PHARMACEUTICAL COMPOSITIONS THEREOF, AND THEIR THERAPEUTIC APPLICATIONS” (NucMito Pharmaceuticals co. Ltd., priority 2022, published 2026).

Assays:
Format in all cases: cell-based
[1] = test system: MDA-MB-231 (breast cancer); assay: Antiproliferative activity (CCK-8 cell viability), MDA-MB-231; conditions: Homo sapiens, 72 h; for inhibition at 3.3 µM: Compound concentration: 3.3 μM; for inhibition at 3.3 µM / inhibition at 10 µM: read-out: Antiproliferative activity in cancerous cells, MDA-MB-231 (inhibition of cell growth); for inhibition at 10 µM: Compound concentration: 10 μM
Summary of the method: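 In this CCK-8 viability assay, MDA-MB-231 cells maintained in Dulbecco's modified Eagle's medium containing 10% fetal bovine serum were placed in 96-well plates (2,000-5,000 cells/well) and treated with compound for 72 h at 37° C. A 4 h incubation with 10 μL CCK-8 followed, plates were read at 450 nm, and viability was expressed against DMSO vehicle wells across replicates.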

[2] = test system: HepG2 (liver cancer); assay: Antiproliferative activity (CCK-8 cell viability), HepG2; conditions: Homo sapiens, 72 h, read-out: Antiproliferative activity in cancerous cells, HepG2 (inhibition of cell growth); for inhibition at 3.3 µM: Compound concentration: 3.3 μM; for inhibition at 10 µM: Compound concentration: 10 μM
Summary of the method: (§1)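 Cells were seeded at 2,000-5,000/well (HeLa in MEM, HepG2 and SW480 in DMEM, A549 in F-12K, all with 10% FBS) and treated with compound at 3.3, 10 or 30 μM for 72 h at 37° C. CCK-8 was added for 4 h, absorbance was read at 450 nm, and viability was expressed relative to DMSO-treated wells.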

[3] = test system: SW480 (colon cancer); assay: Antiproliferative activity (CCK-8 cell viability), SW480; conditions: Homo sapiens, 72 h; for inhibition at 3.3 µM: Compound concentration: 3.3 μM; for inhibition at 3.3 µM / inhibition at 10 µM: read-out: Antiproliferative activity in cancerous cells, SW480 (inhibition of cell growth); for inhibition at 10 µM: Compound concentration: 10 μM; for inhibition at 30 µM: Compound concentration: 30 μM, read-out: Antiproliferative activity in cancerous cells, SW480
Summary of the method: as §1

[4] = test system: B16F10 (malignant melanoma); assay: Antiproliferative activity (CCK-8 cell viability), B16F10; conditions: Mus musculus, 72 h, read-out: Antiproliferative activity in cancerous cells, B16F10 (inhibition of cell growth); for inhibition at 3.3 µM: B16-F10, Compound concentration: 3.3 μM; for inhibition at 10 µM: B16-F10, Compound concentration: 10 μM
Summary of the method: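 Attached B16F10 cells in 96-well plates were incubated with compound at 37° C for 72 h, followed by 10 μL CCK-8 reagent per well and a further 4 h incubation. A multi-well plate reader measured absorbance at 450 nm. Percent viability across replicates was calculated against DMSO vehicle-treated cells.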

[5] = test system: A431 (epidermoid carcinoma); assay: Antiproliferative activity (CCK-8 cell viability), A431; conditions: Homo sapiens, 72 h, read-out: Antiproliferative activity in cancerous cells, A431 (inhibition of cell growth); for inhibition at 3.3 µM: A-431, Compound concentration: 3.3 μM; for inhibition at 10 µM: A-431, Compound concentration: 10 μM
Summary of the method: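 Cell viability of compound-treated A431 cells was measured with a Cell Counting Kit-8. Each well received 10 μL of CCK-8 after 72 h of compound exposure, followed by 4 h incubation at 37° C. and a 450 nm plate-reader measurement. Percent viability was calculated relative to DMSO controls across replicates.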

[6] = test system: A549 (lung adenocarcinoma); assay: Antiproliferative activity (CCK-8 cell viability), A549; conditions: Homo sapiens, 72 h; for inhibition at 3.3 µM: Compound concentration: 3.3 μM; for inhibition at 3.3 µM / inhibition at 10 µM: read-out: Antiproliferative activity in cancerous cells, A549 (inhibition of cell growth); for inhibition at 10 µM: Compound concentration: 10 μM
Summary of the method: as §1

[7] = test system: HeLa (cervical cancer); assay: Antiproliferative activity (CCK-8 cell viability), HeLa; conditions: Homo sapiens, 72 h, read-out: Antiproliferative activity in cancerous cells, HELA (inhibition of cell growth); for inhibition at 3.3 µM: Compound concentration: 3.3 μM; for inhibition at 10 µM: Compound concentration: 10 μM
Summary of the method: as §1

Row | SMILES | inhibition at 3.3 µM [1] | inhibition at 10 µM [1] | inhibition at 3.3 µM [2] | inhibition at 10 µM [2] | inhibition at 3.3 µM [3] | inhibition at 10 µM [3] | inhibition at 3.3 µM [4] | inhibition at 10 µM [4] | inhibition at 3.3 µM [5] | inhibition at 10 µM [5] | inhibition at 3.3 µM [6] | inhibition at 10 µM [6] | inhibition at 3.3 µM [7] | inhibition at 10 µM [7] | inhibition at 30 µM ([1]; Compound concentration: 30 μM, read-out: Antiproliferative activity in cancerous cells, MDA-MB-231) | inhibition at 30 µM [3] | inhibition at 30 µM ([6]; Compound concentration: 30 μM, read-out: Antiproliferative activity in cancerous cells, A549)
1 | CC1=C(CC(=O)O)c2ccc(Cl)cc2/C1=C\c1ccc(Oc2ccc(F)cc2)cc1 [C67, (Z)-2-(6-Chloro-1-(4-(4-fluorophenoxy)benzylidene)-2-methyl-1H-inden-3-yl)acetic acid] | < 30% | ≥ 50% | 30 to 50% | ≥ 50% | 30 to 50% | 30 to 50% | < 30% | < 30% | 30 to 50% | ≥ 50% | < 30% | ≥ 50% | < 30% | < 30% | – | – | –
2 | CC1=C(CC(=O)O)c2cc(F)ccc2/C1=C\c1ccc(Oc2ccc(F)cc2Cl)cc1 [C68, (Z)-2-(1-(4-(2-Chloro-4-fluorophenoxy)benzylidene)-5-fluoro-2-methyl-1H-inden-3-yl)acetic acid] | < 30% | < 30% | < 30% | ≥ 50% | ≥ 50% | ≥ 50% | < 30% | < 30% | 30 to 50% | ≥ 50% | < 30% | ≥ 50% | < 30% | < 30% | – | – | –
3 | COc1ccc(Oc2ccc(/C=C3/C(C)=C(CC(=O)O)c4cc(F)ccc43)cc2)cc1Cl [C70, (Z)-2-(1-(4-(3-Chloro-4-methoxyphenoxy)benzylidene)-5-fluoro-2-methyl-1H-inden-3-yl)acetic acid] | < 30% | < 30% | < 30% | ≥ 50% | < 30% | < 30% | < 30% | 30 to 50% | ≥ 50% | ≥ 50% | < 30% | 30 to 50% | < 30% | ≥ 50% | 30 to 50% | < 30% | –
4 | COc1cc(Oc2ccc(/C=C3/C(C)=C(CC(=O)O)c4cc(F)ccc43)cc2)ccc1Cl [C71, (Z)-2-(1-(4-(4-Chloro-3-methoxyphenoxy)benzylidene)-5-fluoro-2-methyl-1H-inden-3-yl)acetic acid] | < 30% | 30 to 50% | ≥ 50% | ≥ 50% | < 30% | ≥ 50% | ≥ 50% | ≥ 50% | ≥ 50% | ≥ 50% | < 30% | 30 to 50% | 30 to 50% | ≥ 50% | – | – | –
5 | COc1ccc2c(c1)C(CC(=O)O)=C(C)/C2=C/c1ccc(Oc2ccc(Cl)cc2)cc1 [C72, (Z)-2-(1-(4-(4-Chlorophenoxy)benzylidene)-5-methoxy-2-methyl-1H-inden-3-yl)acetic acid] | 30 to 50% | 30 to 50% | < 30% | < 30% | < 30% | < 30% | ≥ 50% | ≥ 50% | 30 to 50% | 30 to 50% | < 30% | < 30% | ≥ 50% | ≥ 50% | – | < 30% | 30 to 50%
6 | COc1ccc2c(c1)C(CC(=O)O)=C(C)/C2=C/c1ccc(Oc2cccc(Cl)c2)cc1 [C73, (Z)-2-(1-(4-(3-Chlorophenoxy)benzylidene)-5-methoxy-2-methyl-1H-inden-3-yl)acetic acid] | < 30% | 30 to 50% | < 30% | < 30% | < 30% | < 30% | 30 to 50% | ≥ 50% | 30 to 50% | ≥ 50% | < 30% | < 30% | 30 to 50% | ≥ 50% | – | 30 to 50% | –
7 | COc1ccc2c(c1)C(CC(=O)O)=C(C)/C2=C/c1ccc(Oc2ccc(Cl)cc2)cc1C [C74, (Z)-2-(1-(4-(4-Chlorophenoxy)-2-methylbenzylidene)-5-methoxy-2-methyl-1H-inden-3-yl)acetic acid] | ≥ 50% | ≥ 50% | < 30% | ≥ 50% | < 30% | 30 to 50% | ≥ 50% | ≥ 50% | ≥ 50% | ≥ 50% | 30 to 50% | ≥ 50% | < 30% | ≥ 50% | – | – | –
8 | COc1ccc2c(c1)C(CC(=O)O)=C(C)/C2=C/c1ccc(Oc2ccc(F)c(F)c2)cc1 [C75, (Z)-2-(1-(4-(3,4-Difluorophenoxy)benzylidene)-5-methoxy-2-methyl-1H-inden-3-yl)acetic acid] | ≥ 50% | ≥ 50% | < 30% | ≥ 50% | < 30% | 30 to 50% | ≥ 50% | ≥ 50% | ≥ 50% | ≥ 50% | 30 to 50% | ≥ 50% | ≥ 50% | ≥ 50% | – | – | –
9 | CC1=C(CC(=O)O)c2cc(Cl)ccc2/C1=C\c1ccc(Oc2ccc(F)c(F)c2)cc1 [C76, (Z)-2-(5-Chloro-1-(4-(3,4-difluorophenoxy)benzylidene)-2-methyl-1H-inden-3-yl)acetic acid] | < 30% | ≥ 50% | < 30% | ≥ 50% | < 30% | ≥ 50% | 30 to 50% | ≥ 50% | ≥ 50% | ≥ 50% | 30 to 50% | ≥ 50% | 30 to 50% | ≥ 50% | – | – | –
10 | CC1=C(CC(=O)O)c2cc(Br)ccc2/C1=C\c1ccc(Oc2ccc(Cl)cc2)cc1 [C77, (Z)-2-(5-Bromo-1-(4-(4-chlorophenoxy)benzylidene)-2-methyl-1H-inden-3-yl)acetic acid] | ≥ 50% | ≥ 50% | 30 to 50% | ≥ 50% | < 30% | 30 to 50% | ≥ 50% | ≥ 50% | < 30% | < 30% | < 30% | ≥ 50% | ≥ 50% | ≥ 50% | – | – | –
